According to a melting point compilation (Tetko et al.; mined from patent text by program, amines drawn as free bases though some values may be those of a salt):

melting point [°C] | Compound
56 to 58 | Cc1nc2cnccc2o1
134 to 135 | CC(CC(=O)O)CC(=O)c1ccc(N2CCC(c3ccccc3)CC2)cc1 (stereo not given)
70 to 72 | CCCOC(=O)C(C)Oc1ccc(Oc2cnc3cc(Cl)ccc3n2)cc1F (stereo not given)
245 to 247 | O=C(O)Cc1ccc2c(c1)C(=O)c1ccc(Cl)cc1CS2
158 | CN1CCC(Cc2nc3ccccc3n2Cc2ccc(CO)o2)CC1
192 to 194 | CNc1nc(-c2cccc(NC(=O)c3ccccc3OCc3ccccc3)c2)c2cc(OC)c(OC)cc2n1
148 to 150 | O=C1Cc2cc(Oc3ccccc3)ccc2N1
78 to 80 | CCOC(=O)CCCN1C(=O)c2ccc(N/C(=C3\C(=O)Nc4ccccc43)c3ccccc3)cc2C1=O
128 | CC(C)Nc1ccc2c(c1)N1CCN=C1S2
125 to 127 | CCCCCCCNC(=O)Nc1ccccc1C(=O)N1CCN(C(c2ccccc2)c2ccccc2)CC1
78 to 81 | CC(C#CCCCc1ccccc1)N(O)C(N)=O (stereo not given)
106 to 108 | CCOc1cc2c(cc1OCC)C(C(S)(C#N)CCC(=O)O)=NCC2 (stereo not given)
151 to 153 | CC(C)Cc1ccc2scc(C(C)N(O)C(N)=O)c2c1 (stereo not given)
207 to 208 | COc1ccn2nc(-c3ccccc3)c(-c3ccc(=O)n(C4CCOC4)n3)c2c1 (stereo not given)
149 to 153 | CCNc1nc2ccc(CCc3nc4cc(C)ccn4c3Br)cc2o1
138 to 140 | Cc1nc(-c2ccccc2)nc(-c2cccc([N+](=O)[O-])c2)c1CN1CCN(C)CC1
154 to 155 | COC(=O)c1ccc2oc(-c3ccccc3OC(C)C)cc(=O)c2c1
164 to 165 | N#CCCNC(=O)c1cccc(-c2ccnc3cc(Cc4cccc(C(F)(F)F)c4)oc23)c1
258 to 260 | CCOc1sc(C(=O)O)c2c1-c1c(cnn1C)CC2
151 to 154 | Cc1ccc(-c2ncc3c(n2)CCCCC3)nc1-c1ccccc1
98 to 99 | OC[C@H]1OC[C@@H](n2c(NC3CC3)nc3cc(Cl)c(Cl)cc32)C[C@@H]1O
83 to 85 | CCCCCCCCCCC(C)(C)NC(=O)Nc1cc(OC)cc(C(C)(C)C)c1OCOC
198 to 200 | COc1ccc([C@@H]2Sc3cc(Oc4ccc(F)cc4)ccc3NC(=O)[C@@H]2O)cc1
127 to 130 | COc1cc2c(-c3ccnc(NN)c3)c(CO)c(CO)cc2cc1OC1CCCC1
230 | CC1CN(c2ccc(-c3[nH]nc4c3C(=O)c3c(NC(=O)NN5CCOCC5)cccc3-4)cc2)CCN1 (stereo not given)

melting point [°C] | Compound
142 to 143 | CCOc1nn(Cc2ccc(OC3CCN(c4ccccn4)CC3)cc2)cc1CCC(=O)O
144 to 147 | CCC1=C(C(=O)OC)C(c2ccc(F)cc2Cl)N=C(c2cscn2)N1 (stereo not given)
107 to 108 | Cn1nc(Cl)cc(Br)c1=O
83 to 84 | [N-]=[N+]=N[C@@H](Cc1ccccc1)[C@H](O)CO
196 to 198 | COc1ccc(N2C(=O)C(C)N(c3ccc(Oc4ccc(O)cc4)cc3)C2=S)cc1 (stereo not given)
277 to 279 | O=C(NCc1ccc(Cl)cc1)c1cnc2c(F)cc(C#CCO)cc2c1O
122 to 124 | CCCCN1C(=O)c2c(ncn2C)N2CCN=C12
173 to 175 | CC(C)(C)OC(=O)C(N)CCNC(=O)c1ccc2c(c1)C(=O)c1ccccc1C2=O (stereo not given)
136 to 139 | O=C1CCN(C(=S)Nc2ccc(Cl)cc2)N1c1ccccc1
62.5 to 64 | N#Cc1ccc(-c2ccc(OCCCCBr)cc2)cc1
166 to 168 | COc1cc(-c2cn(Cc3ccccc3)c(=O)c3ccccc23)cc(OC)c1OC
161 to 163 | O=C(O)Cc1coc2cc(OCc3ccc(OCc4ccc(C(F)(F)F)cc4)cc3)ccc12
119 to 121 | COc1ccc(CCCC(=O)O)cc1NC(=O)C[C@H]1O[C@H](c2cccc(OC)c2OC)c2cc(Cl)ccc2N(CC(C)(C)CO)C1=O
118 | N#CC(Cc1cccc2c1OCO2)C(=O)O (stereo not given)
116 to 118 | CC(C)(C)OC(=O)NC(C(=O)O)C1(O)CCSC1 (stereo not given)
171 to 175 | C[C@@H](O)[C@H]1CC[C@H]2[C@@H]3CC=C4CC(=O)CC[C@]4(C)[C@H]3CC[C@]12C
289 to 290 | CC(C)c1cccc(C(C)C)c1NC(=O)C1c2ccccc2COc2ccc(C(=O)O)cc21 (stereo not given)
220 | CS(=O)(=O)c1cc(Br)ccc1C(=O)O
225 to 226 | CC(C)c1cc2c(=O)n3cc(C#N)ccc3nc2s1
360 | CC(C)(NC1=NS(=O)(=O)c2sc(Cl)cc2N1)c1ccccc1
146 to 148 | C=CC(=O)NCC(C(=O)c1ccccc1)C(=O)c1ccccc1
236 to 240 | CNC(=O)N1CC(Oc2ccccc2C(N)=O)C1
> 260 | CC(=O)Nc1nc(N)nc(-c2ccc(Oc3ccccc3)cc2)n1
180 to 181 | O=c1c2c(c3cccnc3n1-c1ccccc1)OCCCC2
85 to 86 | c1ccc2c(c1)C[C@H]1Nc3ccccc3[C@@H]21 (relative stereo)

melting point [°C] | Compound
200 to 201 | CSc1ccc(-c2coc3ccc(-c4nnc(C)o4)cc23)cc1Cl
155 to 156 | CCCNc1nc(N)c2ncn(C3CCCCC3)c2n1
119 to 121 | COC(=O)c1ccc(C(=O)Nc2ccccc2OC)cc1
117 to 119 | O=S(=O)(Nc1ccc(Cl)cc1-c1cc(-c2ccc(F)cc2F)on1)C(F)(F)F
49 to 53 | CC(=C(C#N)N=CN(C)C)N1CCCC1
128 to 130 | Nc1ccc(N2CCN(CCCC(=O)c3ccc(F)cc3)CC2)nc1N
145 to 150 | CCCNC1CCc2nc(N)sc2C1 (stereo not given)
119 to 121 | CCOC(=O)C(=CNC1CC1)C(=O)c1c(F)cc(F)c(F)c1N(Cc1ccccc1)C(C)=O
> 250 | N#Cc1cnc2sc(C#Cc3ccncc3)cc2c1Nc1ccc2[nH]ccc2c1
59 to 61 | N#CCc1cc2ccccc2s1
212 | CCOC(=O)C1=C(C)NC2(C)ON=C(C)C2C1c1ccccc1[N+](=O)[O-] (stereo not given)
144 to 145 | OCCNC(=S)NC(=Nc1ccccc1)c1ccccc1
67 to 69 | O=C(NC(Cc1ccccc1)c1ccc(O)cc1)C(c1ccccc1)c1ccccc1 (stereo not given)
140 to 141 | CCCCCCCCC(SCCCCCC)C(=O)Nc1c(Cl)cc(NC(C)=O)c2ncc(C)cc12 (stereo not given)
73 to 74 | COC(=O)c1cc(I)ccn1
134 to 136 | CN(CCCNc1ncc(CCc2ccccc2)c(=O)[nH]1)c1ccccn1
159 to 161 | O=C(NCCCl)Nc1ccc2[nH]ccc2c1
306 | Clc1ccc(Nc2nnc(-c3ccc(-c4ccccc4)cc3)s2)cc1Cl
113 to 114 | O=C1N[C@H](Cc2cccc(OCC(F)(F)C(F)F)c2)[C@H](c2ccc(F)cc2)O1 (racemic)
189 to 190 | CC(C)(C)Sc1c(CC(C)(C)C(=O)O)n(Cc2ccc(Cl)cc2)c2ccc(OCc3ccccn3)cc12
158 to 160 | COc1cc(OC)c2c(=O)c(I)coc2c1
229 to 230 | COc1cc(Nc2c(C#N)cnc3cc(-n4cccc4)c(OC)cc23)c(Cl)cc1Cl
113 to 114 | CCOC(=O)C(=NO)c1cccc(Br)c1
125 to 126 | COc1ccccc1Oc1cccc(CC(=O)O)c1O
157 to 159 | CC(CCC(=O)O)C1CCC2C3C(=O)CC4CC(OC5CCCCO5)CCC4(C)C3CCC12C (stereo not given)

melting point [°C] | Compound
197 to 199 | COc1cc2c(cc1Nc1ncc(Cl)c(Nc3ccccc3S(=O)(=O)N3CCC(O)C3)n1)CCN(CC(C)O)CC2 (stereo not given)
63.1 to 66.3 | CCCCCC[C@@H]1C(=O)O[C@H]1OC(=O)N(CCCCC)c1ccccc1Oc1ccccc1 (relative stereo)
220 to 222 | CC(=O)OC1(C(C)=O)CCC2C3C=CC4=CC(=O)CCC4(C)C3C(F)CC21C (stereo not given)
203 | O=C(Nc1ccc2[nH]c(=S)oc2c1)C(=O)N1CCC(Cc2ccccc2)CC1
110 | COCCOCOc1ccc2cc(C(=O)O)ccc2c1
215 | O=C(Nc1n[nH]c2cc(Cl)ccc12)c1cccs1
228 to 230 | COc1cc2nc(N3CCC(=O)CC3)nc(N)c2cc1OC
65 to 68 | CC(C)COP(C)(=O)CC(=O)CNC(=O)OC(C)(C)C (stereo not given)
194 to 195 | CCn1c(=O)c2c(nc(/C=C/c3ccc(OC(C)=O)c(OC)c3)n2C)n(CC)c1=O
85 to 88 | CC[C@H](CO)NC(=O)c1ccc(C(=O)N2CCN(c3ncccc3NC(C)C)CC2)nc1
90 to 92 | CCC/C(=C\C=C\C(=O)Oc1ccc([N+](=O)[O-])cc1)c1ccc(OC)cc1
140 to 142 | Cc1ccc(S(=O)(=O)N2CCC3(CCc4ccccc43)CC2)cc1
176 to 181 | Cc1cc(C(C)(C)C)c(OP2OP(Oc3c(C(C)(C)C)cc(C)cc3C(C)(C)C)OP(Oc3c(C(C)(C)C)cc(C)cc3C(C)(C)C)O2)c(C(C)(C)C)c1 (stereo not given)
134 to 136 | CCOC(=O)C(=CNc1cc(C)no1)C(=O)OCC
152 to 155 | CON(Cc1ccc(F)cc1Cl)C(=O)C1=C(O)C(=O)N(C)C1
92 | COC(=O)c1ccc2c(c1)C(=O)C(CC=O)C2 (racemic)
195 to 196 | COc1ccc(C2=C(c3c4n(c5ccccc35)CCC(CN)C4)C(=O)NC2=O)cc1 (stereo not given)
225 | Cc1cc(=O)[nH]nc1-c1ccc2nc(C3CC3)n(Cc3ccc(-c4ccccc4-c4nnn[nH]4)cc3)c2c1
86 to 87 | CC(C)(C)c1cc(CC2CO2)cc(C(C)(C)C)c1O (stereo not given)
109 to 110 | CCCCCCCCCCC[C@@H](O)CC(=O)OCC(=O)c1ccc(Br)cc1
82 | CCOC(=O)NCc1cc(-c2ccccc2)no1
196 to 197 | Nc1ccc(C2CCN(c3ccncc3)CC2)cc1
112 to 114 | CN(CCc1ccc(N)cc1)C1Cc2ccc(N)cc2C1 (stereo not given)
232 to 235 | CC(=O)Nc1c(F)ccc2nc(C)ccc12

Compound | melting point [°C]
CCCc1c(C(=O)N2CCOCC2)c2ccc(C(N)=O)cc2n1Cc1ccccc1Cl | 229 to 230
